Counter-ions that a name gives are not always drawn.
System: SB.msgc-1
Assay: AC50 for growth inhibition (viability) (log10 M); higher = less potent
Conditions: SB.msgc-1 (sporadic gastric cancer)
Outline: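 Hereditary or sporadic patient-derived gastric cancer cells (500 cells in 5 μL medium per 1536 well) received 23 nL compound in DMSO by pintool. Dosing was 11 threefold dilutions starting at a final 46 μM. After 48 h, CellTiter-Glo was added for 30 min at room temperature and luminescence read on a ViewLux. Log half-maximal activity concentration came from a four-parameter fit of DMSO-normalised viability, keeping only high-quality curve classes.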

Row | Compound | AC50 for growth inhibition (log10 M)
1 | CN(CCOc1ccc(CC2SC(=O)NC2=O)cc1)c1ccccn1 (stereo not given) [Rosiglitazone] | -5.18
2 | O=C1N\2CCC3=C([NH]C4=C3C=CC=C4)C2=N/C5=CC=CC=C15 [Rutaecarpine] | -4.78
3 | N#CC[C@H](C1CCCC1)n1cc(-c2ncnc3[nH]ccc23)cn1 [Ruxolitinib] | -4.73
4 | CC(C)(C)c1cc(C(=O)O)c(NC(=O)Nc2ccc3[nH]ncc3c2)s1 [S6K-18] | -4.88
5 | Fc1ccc(Cl)cc1-c1nc(Nc2ccncc2)c2nccnc2n1 [SD-208] | -4.93
6 | O=C1NC(=O)/C(=C/c2cccc(C(F)(F)F)c2)S1 [SMI-4a] | -4.83
7 | CC(C)(C)c1cnc(CSc2cnc(NC(=O)C3CCNCC3)s2)o1 [SNS-032] | -7.18
8 | Cc1c(C)n(Cc2ccc(-c3ccccc3C(=O)O)cc2)c2ccc(C(=O)N[C@@H](C)c3ccc([N+](=O)[O-])cc3)cc12 [SR1664] | -4.68
9 | CCCCCNC(=O)N1CCC(CN(Cc2ccc(Cl)cc2)Cc2ccc([N+](=O)[O-])s2)C1 (stereo not given) [SR9011] | -4.73
10 | CNC(=O)CN1CCC(Oc2cc3c(Nc4cccc(Cl)c4F)ncnc3cc2OC)CC1 [Sapitinib] | -7.98
11 | N#C[C@@H]1C[C@@H]2C[C@@H]2N1C(=O)[C@@H](N)C12CC3CC(CC(O)(C3)C1)C2 [Saxagliptin] | -4.98
12 | CC[C@H](CO)Nc1nc(NCc2ccccc2)c2ncn(C(C)C)c2n1 [Seliciclib] | -4.68
13 | c1cc2c(cc1[C@H]1OC[C@H]3[C@@H]1CO[C@@H]3c1ccc3c(c1)OCO3)OCO2 [Sesamin] | -5.33
14 | CC(C)CC(N(C)C)C1(c2ccc(Cl)cc2)CCC1 (stereo not given) [Sibutramine hydrochloride] | -4.73
15 | O=C(O)c1ccc2c(c1)nc(Nc1cccc(Cl)c1)c1ccncc12 [Silmitasertib] | -4.93
16 | COc1cc([C@H]2Oc3cc([C@H]4Oc5cc(O)cc(O)c5C(=O)[C@@H]4O)ccc3O[C@@H]2CO)ccc1O [Silybin] | -4.78
17 | CCC(C)(C)C(=O)O[C@H]1C[C@@H](C)\C=C2\C=C/[C@H](C)[C@H](CC[C@@H]3C[C@@H](O)CC(=O)O3)[C@@H]12 [Simvastatin] | -4.78
18 | Cc1onc(-c2ccccc2Cl)c1C(=O)N[C@@H]1C(=O)N2[C@@H]1SC(C)(C)[C@@H]2C(=O)[O-] [Sodium cloxacillin] | -5.48
19 | O=C1\C=C/C[C@@H]2[C@H]3CCCN4CCC[C@@H](CN12)[C@@H]34 [Sophocarpine] | -4.78
20 | Fc1ccc(CNc2ncnc3ccc(F)cc23)cc1 [Spautin-1] | -5.48

Row | Compound | AC50 for growth inhibition (log10 M)
21 | Cc1cn([C@H]2C=C[C@@H](CO)O2)c(=O)[nH]c1=O [Stavudine] | -4.37
22 | CC[C@H](/C=C/[C@@H](C)[C@H]1CC[C@H]2[C@@H]3CC=C4C[C@@H](O)CC[C@]4(C)[C@H]3CC[C@]12C)C(C)C [Stigmasterol] | -5.19
23 | CC1(C)[C@H](C(=O)O)N2C(=O)C[C@H]2[S+]1(=O)[O-] [Sulbactam] | -4.83
24 | Cc1nnc(N[S+](=O)([O-])c2ccc(N)cc2)s1 [Sulfamethizole] | -5.43
25 | CCc1nc(-c2cccc(C)c2)c(-c2ccnc(NC(=O)c3ccccc3)c2)s1 [TAK-715] | -4.78
26 | CN1C(=O)/C(=C(NC2=CC=C(I)C=C2F)\C3=C1\N=C/N(C[C@@H](O)CO)C3=O)F [TAK-733] | -6.48
27 | Cc1cc(OCCC[S+](C)(=O)[O-])cc(C)c1-c1cccc(COc2ccc3c(c2)OC[C@H]3CC(=O)O)c1 [TAK-875] | -4.78
28 | CC[S+](=O)([O-])c1cccc(-c2cc(C(=O)NC3CCN(C)CC3)c(C)c3[nH]c4ncc(C)cc4c23)c1 [TAK-901] | -5.33
29 | Cc1cnc(Nc2cccc(CN3CCOCC3)c2)nc1Nc1cccc([S+](=O)([O-])NC(C)(C)C)c1 [TG-89] | -4.78
30 | CC(NC1=CC=CC=C1)C\2=C\C(=C/N3C(=O)\C=C(/N=C23)N4CCOCC4)C (stereo not given) [TGX-221] | -5.58
31 | Clc1ccccc1C(c1ccccc1)(c1ccccc1)n1cccn1 [TRAM-34] | -5.88
32 | N#CC1(c2cccc(C(=O)Nc3cc(Oc4ccc5nc(NC(=O)C6CC6)sc5n4)ccc3F)c2Cl)CC1 [Takeda-6d] | -5.73
33 | CC1(C)CCC(C)(C)c2cc(NC(=O)c3ccc(C(=O)O)cc3)ccc21 [Tamibarotene] | -5.38
34 | CCCCCNC(=N)N/N=C/c1c[nH]c2ccc(OC)cc12 [Tegaserod maleate] | -5.13
35 | CCC[C@@H](NC(=O)[C@@H]1[C@H]2CCC[C@H]2CN1C(=O)[C@@H](NC(=O)[C@@H](NC(=O)c1cnccn1)C1CCCCC1)C(C)(C)C)C(=O)C(=O)NC1CC1 [Telaprevir] | -4.78
36 | CNC(=O)c1cc(COc2nnc(Nc3ccc(Cl)cc3)c3ccoc23)ccn1 [Telatinib] | -4.78
37 | CN(C)[C@H]\1[C@@H]2C[C@H]3C(=C(O)\[C@]2(O)C(=O)\C(=C1O)C(N)=O)/C(=O)C4=C(O)C=CC=C4[C@@]3(C)O [Tetracycline hydrochloride] | -5.18
38 | COc1ccc(CC2NCCc3cc(OC)c(OC)cc32)cc1OC (stereo not given) [Tetrahydropapaverine] | -4.78
39 | COc1ccc2cc1Oc1ccc(cc1)C[C@H]1c3cc(c(OC)cc3CCN1C)Oc1c(OC)c(OC)cc3c1[C@H](C2)N(C)CC3 [Tetrandrine] | -4.73
40 | Clc1ccc(C(Cn2ccnc2)OCc2ccsc2Cl)c(Cl)c1 (stereo not given) [Tioconazole] | -4.63

Row | Compound | AC50 for growth inhibition (log10 M)
41 | O=C(O)C(=O)c1cn(Cc2ccccc2)c2ccc(-c3ccc(OC(F)(F)F)cc3)cc12 [Tiplasinin] | -5.13
42 | Cc1ccc(C(=O)c2cc(O)c(O)c([N+](=O)[O-])c2)cc1 [Tolcapone] | -4.68
43 | CC[C@@]1(O)C(=O)OC\C2=C1\C=C3/N(CC4=CC5=C(C=CC(=C5CN(C)C)O)N=C34)C2=O [Topotecan hydrochloride] | -6.73
44 | NCC1CCC(C(=O)O)CC1 (stereo not given) [Tranexamic acid] | -5.18
45 | CN1\N=C(N)/C2=C[N]([C@@H]3O[C@H](CO[P](O)(O)=O)[C@@H](O)[C@H]3O)C4=C2C1=NC=N4 [Triciribine phosphate] | -6.53
46 | COc1cc(NCc2ccc3nc(N)nc(N)c3c2C)cc(OC)c1OC [Trimetrexate] | -5.83
47 | C[C@H](CCC(=O)O)[C@H]1CC[C@H]2[C@@H]3[C@@H](O)C[C@@H]4C[C@H](O)CC[C@]4(C)[C@H]3CC[C@]12C [Ursodiol] | -5.43
48 | COC1CCC(CC1)N(C(=O)C2CCC(C)CC2)C3=C(SC(=C3)\C4=C\CCCC4)C(O)=O (stereo not given) [VCH-916] | -5.28
49 | FC1=CC=C(SC/2=N/N3\C=N/C(=O)/C(=C3/C=C2)C4=C(Cl)C=CC=C4Cl)C(=C1)F [VX-745] | -4.73
50 | C/C=C/C[C@@H](C)C(=O)[C@H]1C(=O)N[C@@H](C(C)C)C(=O)N(C)CC(=O)N(C)[C@@H](CC(C)C)C(=O)N[C@@H](C(C)C)C(=O)N(C)[C@@H](CC(C)C)C(=O)N[C@@H](C)C(=O)N[C@H](C)C(=O)N(C)[C@@H](CC(C)C)C(=O)N(C)[C@@H](CC(C)C)C(=O)N(C)[C@@H](C(C)C)C(=O)N1C [Valspodar] | -5.08
51 | Cl.Cl.Fc1ccc(C(OCCN2CCN(CCCc3ccccc3)CC2)c2ccc(F)cc2)cc1 [Vanoxeamine] | -4.73
52 | COC(=O)c1ccc2c(c1)NC(=O)/C2=C(\Nc1ccc(N(C)C(=O)CN2CCN(C)CC2)cc1)c1ccccc1 [Vargatef] | -5.28
53 | O=C(O)[C@@H](c1ccc(OCc2ccc3ccccc3n2)cc1)C1CCCC1 [Veliflapon] | -5.18
54 | CCC[S+](=O)([O-])Nc1ccc(F)c(C(=O)c2c[nH]c3ncc(-c4ccc(Cl)cc4)cc23)c1F [Vemurafenib] | -4.78
55 | COC(=O)CCC1=C(C)C2=CC3=NC(=CC4=C(C)C(=C([NH]4)C=C\5N=C(C=C1[NH]2)\C(=C5C)CCC(O)=O)C=C)\C6=C\C=C(/[C@@H](C(=O)OC)[C@@]36C)C(=O)OC [Verteporfin] | -7.03
56 | CC[C@]1(O)C[C@H]2CN(CCC3=C([NH]C4=C3C=CC=C4)[C@@](C2)(C(=O)OC)C5=CC6=C(C=C5OC)N(C=O)[C@H]7[C@](O)([C@H](OC(C)=O)[C@]8(CC)\C=C/C[N@@]9CC[C@]67[C@H]89)C(=O)OC)C1 [Vincristine sulfate] | -8.48
57 | CC[C@]1(O)C[C@@H]2CN(CCc3c([nH]c4ccccc34)[C@@](C(=O)OC)(c3cc4c(cc3OC)N(C)[C@H]3[C@@](O)(C(N)=O)[C@H](O)[C@]5(CC)C=CCN6CC[C@]43[C@@H]65)C2)C1 [Vindesine sulfate] | -8.68
58 | CC[C@]12\C=C/CN3CC[C@]4([C@@H](N(C)C5=CC(=C(C=C45)[C@]6(C[C@H]7C[C@H](CN(C7)CC8=C6[NH]C9=C8C=CC=C9)C(C)(F)F)C(=O)OC)OC)[C@](O)([C@@H]1OC(C)=O)C(=O)OC)[C@H]23 [Vinflunine] | -7.83
59 | CCC1=C[C@@H]2CN(C1)Cc1c([nH]c3ccccc13)[C@@](C(=O)OC)(c1cc3c(cc1OC)N(C)[C@H]1[C@@](O)(C(=O)OC)[C@H](OC(C)=O)[C@]4(CC)C=CCN5CC[C@]31[C@@H]54)C2 [Vinorelbine] | -7.08
60 | C[S+](=O)([O-])c1ccc(C(=O)Nc2ccc(Cl)c(-c3ccccn3)c2)c(Cl)c1 [Vismodegib] | -4.78
